Measured values reported in PubChem BioAssay (NCI).
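Growth conditions: 96-well plates. Treatment: test compound, 48 hours, 5 concentrations. Analysis: linear interpolation between bracketing concentrations; unreached endpoints set to highest concentration. GI50 = concentration required for 50% inhibition of growth. TGI: total growth inhibition.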

How the values were obtained:
Test in all cases: NCI anticancer screen, dose series, 48 h
[1] = tested on: SF-295 CNS
[2] = tested on: SK-MEL-5 melanoma
[3] = tested on: 786-0 renal
[4] = tested on: HS 578T breast
[5] = tested on: SN12C renal
[6] = tested on: M14 melanoma
[7] = tested on: UACC-62 melanoma
[8] = tested on: SF-539 CNS
[9] = tested on: SR leukemia
[10] = tested on: MCF7 breast

SMILES | GI50 [1] [µM] | TGI [1] [µM] | GI50 [2] [µM] | TGI [2] [µM] | GI50 [3] [µM] | TGI [3] [µM] | GI50 [4] [µM] | TGI [4] [µM] | GI50 [5] [µM] | TGI [5] [µM] | GI50 [6] [µM] | TGI [6] [µM] | GI50 [7] [µM] | TGI [7] [µM] | GI50 [8] [µM] | TGI [8] [µM] | GI50 [9] [µM] | TGI [9] [µM] | GI50 [10] [µM] | TGI [10] [µM]
N#CC1=C(N)N=C(N2CCOCC2)C(C#N)C12Nc1ccccc1S2 (stereo not given) | 26.3 | 79.1 | 12.5 | 28.2 | 29.6 | 76.2 | 1.75 | 7.17 | 27.5 | 82.9 | 35 | 65.4 | 18.8 | 40.9 | 18.9 | 35.5 | 9.31 | > 100 |  | 
COc1cc(/C=C2\CC3C4CCC5=CC(=O)CC[C@]5(C)C4CC[C@]3(C)C2=O)ccc1OCCN1CCCC1 (stereo not given in full) | 2.62 | 7.58 | 1.8 | 3.5 | 1.22 | 2.91 | 3.22 | 8.87 | 3.28 | 9.18 | 1.67 | 3.39 | 2.06 | 5.02 | 1.78 | 3.67 |  |  | 4.07 | > 45.3
Cc1ccc2ncnc(N(C)C3CCCCC3)c2c1 | 18.9 | 46.9 | > 100 | > 100 | 32.3 | > 100 | > 100 | > 100 | 39.6 | > 100 | 24.3 | 63.4 | 31.9 | > 100 |  |  | 17.4 | 44.9 | 41.3 | > 100
CC(=O)OCc1nnn2c1C(OC(C)=O)CC2 (stereo not given) |  | > 100 |  | > 100 |  | > 100 |  |  |  | > 100 |  | > 100 |  | > 100 |  | > 100 |  | > 100 |  | 
CSC1=CC(=O)c2ccccc2C1=O | 15.4 | 31.5 | 5.74 | 19 | 4.06 | 14.1 |  |  | 5.31 | 19.4 | 2.03 | 3.88 | 4.06 | 17.1 | 11.4 | 24.3 | 3.11 | 8.98 | 1.72 | 3.65
O=C(O)c1ccc(CSc2nc3ccccc3[nH]2)cc1 | > 100 | > 100 | > 100 | > 100 | > 100 | > 100 | > 100 | > 100 | > 100 | > 100 | > 100 | > 100 |  |  | > 100 | > 100 | > 100 | > 100 | > 100 | > 100
O=C1NC(c2ccc3ccccc3c2)Nc2ccccc21 (stereo not given) |  | > 100 |  | > 100 |  | > 100 |  | > 100 |  |  |  | > 100 |  | > 100 |  | > 100 |  | > 100 |  | > 100
NC(=O)c1c[nH]c2ncnc(N)c12 | 31.1 | > 100 | 84.3 | > 100 | > 100 | > 100 | 36.4 | > 100 | 71.6 | > 100 | 47.9 | > 100 | 95.6 | > 100 | 44.8 | > 100 |  |  | 45.4 | > 100
